Test results as given in patent publication US10597388B2, “Pyridazinone herbicides” (FMC CORPORATION, priority 2014, dated 2020).

Tests used:
Assay in all cases: Test D controlled growth environment herbicide test, pre- and postemergence
Type in all cases: in vivo
[1] = system: blackgrass (Alopecurus myosuroides)
Summary of the method: (§1)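 Species sown in silt loam and sprayed preemergence, or grown in peat-based medium to 2–18 cm (1- to 4-leaf stage) and sprayed postemergence, with compounds in non-phytotoxic solvent plus surfactant. Visual injury scored versus controls after 14–21 d in a controlled environment, 0 (no effect) to 100 (complete control).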

[2] = system: ryegrass, Italian (Italian ryegrass, Lolium multiflorum)
Summary of the method: as §1

[3] = system: chickweed (common chickweed, Stellaria media)
Summary of the method: as §1

[4] = system: bromegrass, downy (downy bromegrass, Bromus tectorum)
Summary of the method: as §1

[5] = system: wheat, winter (winter wheat, Triticum aestivum)
Summary of the method: as §1

[6] = system: oilseed rape (Brassica napus)
Summary of the method: as §1

[7] = system: oat, wild (wild oat, Avena fatua)
Summary of the method: as §1

[8] = system: speedwell (bird's-eye speedwell, Veronica persica)
Summary of the method: as §1

[9] = system: deadnettle (henbit deadnettle, Lamium amplexicaule)
Summary of the method: as §1

[10] = system: Russian thistle (Salsola kali)
Summary of the method: as §1

[11] = system: mustard, wild (wild mustard, Sinapis arvensis)
Summary of the method: as §1

[12] = system: foxtail, green (green foxtail, Setaria viridis)
Summary of the method: as §1

[13] = system: wheat, spring (spring wheat, Triticum aestivum)
Summary of the method: as §1

[14] = Postemergence, 31 g ai/ha, scale 0 to 100 (0 no effect, 100 complete control)
[15] = Postemergence, 125 g ai/ha, visual rating on scale 0 (no effect) to 100 (complete control), 14 to 21 d
[16] = Postemergence, 250 g ai/ha, scale 0 to 100 (0 no effect, 100 complete control)
[17] = Preemergence, 62 g ai/ha, scale 0 to 100 (0 no effect, 100 complete control)
[18] = Preemergence, 125 g ai/ha, scale 0 to 100 (0 no effect, 100 complete control)
[19] = Preemergence, 250 g ai/ha, scale 0 to 100, 0 no effect, 100 complete control
[20] = postemergence, 62 g ai/ha, scale 0 to 100, 0 no effect, 100 complete control

`Cc1nn(C)c(=O)c(-c2ccc(F)c3ccccc23)c1O` [Compound 41] was tested, and the “Blackgrass plant response rating” value [1, 14] was 55, the “Plant response rating, Blackgrass” value [1, 15] was 70 and the “Plant response rating, Blackgrass” value [1, 16] was 75. For the same molecule, the “Plant response rating (scale of 0 to 100), Blackgrass” value ([1]; Preemergence, 31 g ai/ha) was 70, the “Plant response rating, Blackgrass” value [1, 17] was 75 and the “Plant response rating, Blackgrass” value [1, 18] was 80. The “Blackgrass plant response rating” value [1, 19] was 80, the “Plant response rating, Blackgrass” value [1, 20] was 65 and the “Ryegrass, Italian plant response rating” value [2, 14] was 80. The “Plant response rating, Ryegrass, Italian” value [2, 15] was 85, the “Plant response rating, Ryegrass, Italian” value [2, 16] was 90 and the “Plant response rating (scale of 0 to 100), Ryegrass, Italian” value ([2]; Preemergence, 31 g ai/ha) was 95. The “Plant response rating, Ryegrass, Italian” value [2, 17] was 100, the “Plant response rating, Ryegrass, Italian” value [2, 18] was 100 and the “Plant response rating, Ryegrass, Italian” value [2, 19] was 100. The “Plant response rating, Ryegrass, Italian” value [2, 20] was 85, the “Chickweed plant response rating” value [3, 14] was 98 and the “Plant response rating, Chickweed” value [3, 15] was 95. For the same molecule, the “Plant response rating, Chickweed” value [3, 16] was 100, the “Plant response rating (scale of 0 to 100), Chickweed” value ([3]; Preemergence, 31 g ai/ha) was 90 and the “Plant response rating, Chickweed” value [3, 17] was 95. For the same molecule, the “Plant response rating, Chickweed” value [3, 18] was 95, the “Plant response rating, Chickweed” value [3, 19] was 95 and the “Plant response rating, Chickweed” value [3, 20] was 98. The “Bromegrass, Downy plant response rating” value [4, 14] was 10, the “Plant response rating, Bromegrass, Downy” value [4, 15] was 35 and the “Plant response rating, Bromegrass, Downy” value [4, 16] was 45. For the same molecule, the “Plant response rating (scale of 0 to 100), Bromegrass, Downy” value ([4]; Preemergence, 31 g ai/ha) was 50, the “Plant response rating, Bromegrass, Downy” value [4, 17] was 55 and the “Plant response rating, Bromegrass, Downy” value [4, 18] was 70. The “Plant response rating, Bromegrass, Downy” value [4, 19] was 80, the “Plant response rating, Bromegrass, Downy” value [4, 20] was 20 and the “Wheat, Winter plant response rating” value [5, 14] was 10. For the same molecule, the “Plant response rating, Wheat, Winter” value [5, 15] was 25, the “Plant response rating, Wheat, Winter” value [5, 16] was 35 and the “Plant response rating (scale of 0 to 100), Wheat, Winter” value ([5]; Preemergence, 31 g ai/ha) was 10. For the same molecule, the “Plant response rating, Wheat, Winter” value [5, 17] was 20, the “Plant response rating, Wheat, Winter” value [5, 18] was 45 and the “Plant response rating, Wheat, Winter” value [5, 19] was 75. The “Plant response rating, Wheat, Winter” value [5, 20] was 20, the “Oilseed Rape plant response rating” value [6, 14] was 0 and the “Plant response rating, Oilseed Rape” value [6, 15] was 25. The “Plant response rating, Oilseed Rape” value [6, 16] was 55, the “Plant response rating (scale of 0 to 100), Oilseed Rape” value ([6]; Preemergence, 31 g ai/ha) was 0 and the “Plant response rating, Oilseed Rape” value [6, 17] was 5. The “Plant response rating, Oilseed Rape” value [6, 18] was 25, the “Plant response rating, Oilseed Rape” value [6, 19] was 15 and the “Plant response rating, Oilseed Rape” value [6, 20] was 5. For the same molecule, the “Oat, Wild plant response rating” value [7, 14] was 70, the “Plant response rating, Oat, Wild” value [7, 15] was 85 and the “Plant response rating, Oat, Wild” value [7, 16] was 85. For the same molecule, the “Plant response rating (scale of 0 to 100), Oat, Wild” value ([7]; Preemergence, 31 g ai/ha) was 85, the “Plant response rating, Oat, Wild” value [7, 17] was 90 and the “Plant response rating, Oat, Wild” value [7, 18] was 90. For the same molecule, the “Plant response rating, Oat, Wild” value [7, 19] was 95, the “Plant response rating, Oat, Wild” value [7, 20] was 80 and the “Speedwell plant response rating” value [8, 14] was 100. For the same molecule, the “Plant response rating, Speedwell” value [8, 15] was 100, the “Plant response rating, Speedwell” value [8, 16] was 100 and the “Plant response rating (scale of 0 to 100), Speedwell” value ([8]; Preemergence, 31 g ai/ha) was 100. For the same molecule, the “Plant response rating, Speedwell” value [8, 17] was 95, the “Plant response rating, Speedwell” value [8, 18] was 100 and the “Plant response rating, Speedwell” value [8, 19] was 100. The “Plant response rating, Speedwell” value [8, 20] was 100, the “Deadnettle plant response rating” value [9, 14] was 85 and the “Plant response rating, Deadnettle” value [9, 15] was 80. For the same molecule, the “Plant response rating, Deadnettle” value [9, 16] was 100, the “Plant response rating (scale of 0 to 100), Deadnettle” value ([9]; Preemergence, 31 g ai/ha) was 35 and the “Plant response rating, Deadnettle” value [9, 17] was 90. For the same molecule, the “Plant response rating, Deadnettle” value [9, 18] was 100, the “Plant response rating, Deadnettle” value [9, 19] was 100 and the “Plant response rating, Deadnettle” value [9, 20] was 100. For the same molecule, the “Russian Thistle plant response rating” value [10, 14] was 70, the “Plant response rating, Russian Thistle” value [10, 15] was 75 and the “Plant response rating, Russian Thistle” value [10, 16] was 75. The “Plant response rating (scale of 0 to 100), Russian Thistle” value ([10]; Preemergence, 31 g ai/ha) was 25, the “Plant response rating, Russian Thistle” value [10, 17] was 20 and the “Plant response rating, Russian Thistle” value [10, 18] was 40. The “Plant response rating, Russian Thistle” value [10, 19] was 70, the “Plant response rating, Russian Thistle” value [10, 20] was 70 and the “Mustard, Wild plant response rating” value [11, 14] was 90. For the same molecule, the “Plant response rating, Mustard, Wild” value [11, 15] was 100, the “Plant response rating, Mustard, Wild” value [11, 16] was 100 and the “Plant response rating (scale of 0 to 100), Mustard, Wild” value ([11]; Preemergence, 31 g ai/ha) was 70. The “Plant response rating, Mustard, Wild” value [11, 17] was 90, the “Plant response rating, Mustard, Wild” value [11, 18] was 95 and the “Plant response rating, Mustard, Wild” value [11, 19] was 95. The “Plant response rating, Mustard, Wild” value [11, 20] was 100, the “Foxtail, Green plant response rating” value [12, 14] was 45 and the “Plant response rating, Foxtail, Green” value [12, 15] was 50. For the same molecule, the “Plant response rating, Foxtail, Green” value [12, 16] was 65, the “Plant response rating (scale of 0 to 100), Foxtail, Green” value ([12]; Preemergence, 31 g ai/ha) was 45 and the “Plant response rating, Foxtail, Green” value [12, 17] was 80. The “Plant response rating, Foxtail, Green” value [12, 18] was 100, the “Plant response rating, Foxtail, Green” value [12, 19] was 100 and the “Plant response rating, Foxtail, Green” value [12, 20] was 55. The “Wheat, Spring plant response rating” value [13, 14] was 15, the “Plant response rating, Wheat, Spring” value [13, 15] was 30 and the “Plant response rating, Wheat, Spring” value [13, 16] was 40. For the same molecule, the “Plant response rating (scale of 0 to 100), Wheat, Spring” value ([13]; Preemergence, 31 g ai/ha) was 40, the “Plant response rating, Wheat, Spring” value [13, 17] was 55 and the “Plant response rating, Wheat, Spring” value [13, 18] was 70. The “Plant response rating, Wheat, Spring” value [13, 19] was 85 and the “Plant response rating, Wheat, Spring” value [13, 20] was 20.
